Patent publication US6114393A, “Use of inhibitors of the sodium-hydrogen exchanger for the production of a pharmaceutical for the treatment of disorders which are caused by protozoa” (Hoechst Marion Roussel Deutschland GmbH, priority 1997, dated 2000)
Structures can show the parent of a compound that is named as a salt. Where two headings read alike, the source gives them in different places.

Assays:
[1] = test system: Plasmodium falciparum HB3 (chloroquine-sensitive) strain; experiment: growth inhibition of Plasmodium falciparum, [3H]-hypoxanthine incorporation, chloroquine-sensitive (HB3) strain; assay type: cell-based; settings: 48 h erythrocyte cycle, ring stage, 1% parasitemia
Experimental: (§1) Erythrocytic stages of the human malaria parasite Plasmodium falciparum were cultured in RPMI 1640 medium, with L-glutamine, 25 mM HEPES, 4 μg/ml of gentamycin, 10% human serum and 5% human erythrocytes, according to Trager and Jensen (1976). The cultures were kept in Petri dishes (10 ml per dish with 10 cm diameter) and incubated at 37° C. in an atmosphere of 92% nitrogen, 3% carbon dioxide and 5% oxygen. The medium of the cultures was changed daily. At a parasitemia of at most 10%, the cultures were diluted. In order to synchronize the cultures, the infected erythrocytes were washed in 5% strength sorbitol solution according to Lambros and Vanderberg (1979). Only the ring stages survive this treatment.
(§2) The half-maximal inhibitory concentration of various NHE inhibitors for the growth of Plasmodium flaciparum was measured in 96-well microtiter plates by incorporation of radioactive hypoxanthine according to Desjardins et al. (1979). In this case, the parasites were cultured for a complete erythrocyte cycle lasting 48 hours in the presence of the corresponding NHE inhibitors.
(§3) The NHE inhibitors were dissolved in DMSO and prediluted in physiological saline solution (150 mM NaCl). The dilution series of the NHE inhibitors in 10-fold concentrated 20 μl aliquots was initially introduced onto the microtiter plates, 180 μl of parasite suspension in culture medium were then added to each one. The parasites were in the ring stage with a parasitemia of 1%. The microtiter plates were then incubated for 24 hours. In order to change the culture medium, 150 μl each of supernatant from each well were removed and replaced by 135 μl of new medium, additionally supplemented with 2 μCi/ml of [3H]-hypoxanthine. […] After incubation for a further 24 hours, the cultures were harvested by filtration on glass fiber filters and the incorporated radioactivity was measured. […]
(§4) The IC50 values of the various NHE inhibitors were measured on a chloroquine-sensitive (HB3) and a chloroquine-resistant (Dd2) strain.

[2] = test system: Plasmodium falciparum Dd2 (chloroquine-resistant) strain; experiment: growth inhibition of Plasmodium falciparum, [3H]-hypoxanthine incorporation, chloroquine-resistant (Dd2) strain; assay type: cell-based; settings: read-out: Dd2 IC50
Experimental: as §1, §2, §3, §4

[3] = Dd2, chloroquine-resistant, 48 h erythrocyte cycle, ring stage, 1% parasitemia

IC50 [1] [µM] | IC50 [2, 3] [µM] | SMILES | IC50 ([2]; DD2, Erythrocyte, 48 h) [µM]
12 ± 1.7 | 6.5 ± 1.5 | NC(N)=NC(=O)c1ccc(Oc2cccnc2)c(C(F)(F)F)c1 [3-trifluoromethyl-4-(3-pyridyloxy)benzoylguanidine dihydrochloride] | –
9.97 | 1.3 ± 0.1 | CN(C)c1cc(C(=O)N=C(N)N)cc(C(F)(F)F)c1 [3-trifluoromethyl-5-N,N-dimethylaminobenzoylguanidine dihydrochloride] | –

SMILES | IC50 [1] [µM] | IC50 [2, 3] [µM] | IC50 ([2]; DD2, Erythrocyte, 48 h) [µM]
CS(=O)(=O)c1cc(C(=O)N=C(N)N)ccc1Oc1ccc(CCN)cc1 [4-[4-(2-aminoethyl)phenoxy]-3-methylsulfonylbenzoylguanidine dihydrochloride] | 2.9 ± 0.79 | – | 3.5 ± 0.04
